The values below come from article PMC6746705, “Distinct effects of Q925 mutation on intracellular and extracellular Na^+ and K^+ binding to the Na^+, K^+-ATPase” (Scientific Reports, 2019).

This test has as its system T1, endogenous COS-1 cell Na+, K+-ATPase.
T1 construct: gene ATP1A1; endogenous enzyme in COS-1 plasma membranes
The experiment in a line: high-affinity phase of biphasic ouabain inhibition of Na+,K+-ATPase activity in plasma membranes. It counts as biochemical.

Turning to `C[C@@H]1O[C@@H](O[C@H]2C[C@@H](O)[C@]3(CO)[C@H]4[C@H](O)C[C@]5(C)[C@@H](C6=CC(=O)OC6)CC[C@]5(O)[C@@H]4CC[C@]3(O)C2)[C@H](O)[C@H](O)[C@H]1O` [ouabain], the IC50 was around 1000 nM.
